Data as given in patent US8927498B2, “Compositions and methods useful in enhancement of memory” (The Translational Genomics Research Institute, priority 2010, dated 2015).
Entries after “also recorded” stand apart in the source; their conditions may differ.

Tested on: seventeen-month-old Fischer-344 male rats (aged rat model of cognitive decline)
Assay: water-escape plus maze, spatial working memory
Type: in vivo
Settings: 17-month-old Fischer-344 male rats, 1 mg/kg/day, vs vehicle (saline), n=9
Description: In one embodiment of the present disclosed invention, the transduction complex comprises a fusion peptide including a TAT protein transduction domain and residues surrounding two known serine phosphorylation targets (Ser159 and Ser163) within MARCKS (SEQ ID NO: 3). The compound was administered to seventeen-month-old rats and behavioral spatial working memory of the rats was assessed by behavior testing. […] Such assays include, without limitation, the Morris water maze and the radial arm water maze, plus maze. For example, when employing the Morris water maze, a rat is trained to swim to a submerged platform. The rat can then be treated with an agent at a particular dose for a particular duration. Following treatment, the mean escape latency (i.e., time to find platform) is measured and compared to the mean escape latency of a control. […] Following treatment, the ability of the rat to remember a newly-learned path is measured and compared to that of a control. […] In the water Plus Maze test, the variables measured include the percentage of time spent in the open and closed areas of the maze, the latency to leave the central platform, the total number of crossings between the various open and closed areas of the maze, and the number of crossings into the open areas of the maze divided by the total number of crossings. […]

SEQ ID NO: 1: fusion peptide including a TAT protein transduction domain and residues surrounding two known serine phosphorylation targets (Ser159 and Ser163) within MARCKS (YGRKKRRQRRRCKRFSFKKSFKLSGFSFKK; TAT MARCKS fusion)
working memory performance in water-escape plus maze: acquired the plus maze task at a faster rate; also recorded: enhanced working memory performance
